Assay results reported in US6331570A, “Active enantiomer of RARγ-specific agonist” (Bristol-Myers Squibb Company, priority 1999, dated 2001).

Experiments:
papillomas = experiment: two-stage system of mouse skin carcinogenesis (DMBA initiator, TPA promoter); format: in vivo; details: i.p.
[1] = prior art / general statement; cited from earlier work
[2] = 13-cis-retinoic acid 50 mg/kg (dose from text), 10 weeks monitoring

In the case of CC1=C(/C=C/C(C)=C/C=C/C(C)=C\C(=O)O)C(C)(C)CCC1 [13-cis-retinoic acid], the “number and size of papillomas” value (papillomas; 50 mg/kg, 10 weeks) is reported as “inactive”, the “Tumor Burden (mean tumor size per mouse)” value (papillomas; [2]) is reported as 6.8 mm^3 and the “Tumor Incidence (% of mice with tumors)” value (papillomas; [2]) is reported as 80%. The “liver toxicity” value [1] was “adverse side-effects on long-term use such as liver toxicity”.
